Values quoted from earlier work, collected in publication PMC5677520 (Journal of medicinal chemistry, 2017).

Conditions: result in words

cylindrocyclin
passive permeabilities: druglike

CC[C@H](C)[C@@H]1NC(=O)c2csc(n2)[C@@H](C)NC(=O)[C@H]2N=C(O[C@@H]2C)[C@H](C(C)C)NC(=O)c2csc(n2)[C@@H](Cc2ccccc2)NC(=O)[C@H]2N=C1O[C@@H]2C [patellamide C]
passive permeabilities: druglike
